The text below walks through data of patent US20240148040A1, “METHODS OF REDUCING EXERCISE-INDUCED INJURY OR ENHANCING MUSCLE RECOVERY AFTER EXERCISE” (intrinsic Medicine, Inc., priority 2020, published 2024).

For this experiment, the system named is CEBPB expression in LPS-stimulated THP-1 cells. The experiment in a line: CEBPB expression in nascent RNAs of LPS-stimulated THP-1 cells (nascent RNA sequencing). It is filed as cell-based. As to conditions: 10 ng/mL LPS and 250 μM 2′FL, CEBPB enhanced and upregulated. The protocol: THP-1 Cells were treated with 10 ng/mL LPS or 10 ng/mL LPS and 250 μM 2′F and extracted for nascent RNAs at 30 min and 24 hours. The nascent RNAs were sequenced and analyzed as described in Azofeifa et al. (2018), Genome Res. 28: 334-344; the contents of which are expressly incorporated by reference herein.

As to `CC1O[C@@H](OC2[C@H](O[C@H]3C(O)C(O)C(O)O[C@H]3CO)OC(CO)[C@H](O)[C@@H]2O)C(O)[C@@H](O)[C@@H]1O` (some centres unmarked) [2′FL, 2′-fucosyllactose], the “CEBPB maximum enrichment score (nascent RNAs, 2′FL+LPS treated cells versus LPS alone)” value is, setting by setting: (30 min) 40; (24 hours) 20.
